Measurements as given in patent publication US20250361230A1, “LATS Inhibitors and Uses Thereof” (The USA, as Represented by the Secretary, Dept. of Heath …, priority 2022, published 2025).

Key:
Type in all cases: biochemical
LATS1 = target: T1, LATS1 (Homo sapiens, UniProt O95835); assay: RBC HotSpot kinase assay (33P-ATP, P81 filter-binding), LATS1; settings: Table 28, biochemical kinase assay; read-out: LATS1 IC50
T1 sequence (O95835 1-1130): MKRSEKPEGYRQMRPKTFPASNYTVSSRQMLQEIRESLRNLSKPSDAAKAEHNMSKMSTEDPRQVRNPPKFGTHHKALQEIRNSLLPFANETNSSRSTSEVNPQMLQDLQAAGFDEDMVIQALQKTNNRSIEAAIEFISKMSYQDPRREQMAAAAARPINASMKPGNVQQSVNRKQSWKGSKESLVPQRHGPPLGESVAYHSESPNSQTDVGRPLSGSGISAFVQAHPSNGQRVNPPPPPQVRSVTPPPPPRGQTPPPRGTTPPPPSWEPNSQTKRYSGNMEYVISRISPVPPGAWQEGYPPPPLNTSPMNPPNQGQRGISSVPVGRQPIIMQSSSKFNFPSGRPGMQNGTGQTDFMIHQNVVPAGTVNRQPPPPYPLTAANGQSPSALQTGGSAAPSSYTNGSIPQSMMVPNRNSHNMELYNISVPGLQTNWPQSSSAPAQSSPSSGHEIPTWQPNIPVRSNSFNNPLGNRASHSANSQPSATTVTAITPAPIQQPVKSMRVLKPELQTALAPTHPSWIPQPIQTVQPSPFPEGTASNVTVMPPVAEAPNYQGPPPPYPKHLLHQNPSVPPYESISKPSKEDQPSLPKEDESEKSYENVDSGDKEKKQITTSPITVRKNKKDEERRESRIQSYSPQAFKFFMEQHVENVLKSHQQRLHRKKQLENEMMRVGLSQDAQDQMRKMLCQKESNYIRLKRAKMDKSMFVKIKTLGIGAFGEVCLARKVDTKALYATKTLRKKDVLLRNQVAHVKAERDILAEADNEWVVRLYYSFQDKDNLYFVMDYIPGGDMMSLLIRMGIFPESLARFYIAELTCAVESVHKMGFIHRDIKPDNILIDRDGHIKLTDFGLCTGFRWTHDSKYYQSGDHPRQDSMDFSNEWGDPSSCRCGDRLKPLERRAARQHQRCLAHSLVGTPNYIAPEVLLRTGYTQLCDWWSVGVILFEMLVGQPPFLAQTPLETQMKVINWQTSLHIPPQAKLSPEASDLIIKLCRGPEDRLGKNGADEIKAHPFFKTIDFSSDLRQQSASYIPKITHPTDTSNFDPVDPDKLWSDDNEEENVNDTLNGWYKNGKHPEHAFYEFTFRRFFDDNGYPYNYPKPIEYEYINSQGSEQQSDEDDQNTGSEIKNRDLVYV
Summary of the method: (§1)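 IC50 in nM was derived from 10-point, single-replicate titrations. Read-out was radiometric P81 filter binding following a 2 h room-temperature reaction with 33P-ATP, after 20 min compound preincubation.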

AKT = AKT (Homo sapiens, UniProt P31749); assay: RBC HotSpot kinase assay (33P-ATP, P81 filter-binding), AKT; settings: Table 28, biochemical kinase assay; read-out: AKT IC50
Summary of the method: as §1

LATS2 = target: T2, LATS2 (Homo sapiens, UniProt Q9NRM7); assay: RBC HotSpot kinase assay (33P-ATP, P81 filter-binding), LATS2; settings: Table 28, biochemical kinase assay; read-out: LATS2 IC50
T2 sequence (Q9NRM7 1-1088): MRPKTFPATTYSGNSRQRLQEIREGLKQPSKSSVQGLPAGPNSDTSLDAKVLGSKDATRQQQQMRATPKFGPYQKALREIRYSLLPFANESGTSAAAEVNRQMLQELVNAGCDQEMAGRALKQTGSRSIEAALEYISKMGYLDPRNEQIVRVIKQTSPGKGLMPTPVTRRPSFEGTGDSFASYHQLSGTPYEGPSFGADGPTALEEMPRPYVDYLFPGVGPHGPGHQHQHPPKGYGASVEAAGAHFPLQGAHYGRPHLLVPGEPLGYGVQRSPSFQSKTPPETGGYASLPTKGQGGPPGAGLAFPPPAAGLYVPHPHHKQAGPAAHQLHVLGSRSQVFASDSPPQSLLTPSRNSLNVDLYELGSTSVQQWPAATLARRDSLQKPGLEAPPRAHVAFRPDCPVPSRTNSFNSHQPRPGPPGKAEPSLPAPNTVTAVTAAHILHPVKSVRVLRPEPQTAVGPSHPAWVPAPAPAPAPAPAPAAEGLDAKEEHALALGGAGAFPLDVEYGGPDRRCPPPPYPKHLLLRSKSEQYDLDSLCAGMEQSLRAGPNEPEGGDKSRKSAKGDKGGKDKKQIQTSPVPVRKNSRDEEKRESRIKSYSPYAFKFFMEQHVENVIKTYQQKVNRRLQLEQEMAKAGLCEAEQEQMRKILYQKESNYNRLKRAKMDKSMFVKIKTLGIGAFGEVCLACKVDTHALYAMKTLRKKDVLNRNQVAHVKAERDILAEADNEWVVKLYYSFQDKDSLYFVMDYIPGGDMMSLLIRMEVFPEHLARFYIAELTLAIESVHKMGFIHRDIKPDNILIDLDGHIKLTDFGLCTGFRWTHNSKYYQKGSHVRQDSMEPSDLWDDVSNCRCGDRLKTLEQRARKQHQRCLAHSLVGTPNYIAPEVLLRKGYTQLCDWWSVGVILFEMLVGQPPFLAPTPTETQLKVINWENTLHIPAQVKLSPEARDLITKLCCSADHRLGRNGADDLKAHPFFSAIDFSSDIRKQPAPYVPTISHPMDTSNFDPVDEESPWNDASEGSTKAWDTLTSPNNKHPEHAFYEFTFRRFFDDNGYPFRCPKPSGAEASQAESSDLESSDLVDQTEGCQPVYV
Summary of the method: as §1

Chain of AKT (P31749 whole entry): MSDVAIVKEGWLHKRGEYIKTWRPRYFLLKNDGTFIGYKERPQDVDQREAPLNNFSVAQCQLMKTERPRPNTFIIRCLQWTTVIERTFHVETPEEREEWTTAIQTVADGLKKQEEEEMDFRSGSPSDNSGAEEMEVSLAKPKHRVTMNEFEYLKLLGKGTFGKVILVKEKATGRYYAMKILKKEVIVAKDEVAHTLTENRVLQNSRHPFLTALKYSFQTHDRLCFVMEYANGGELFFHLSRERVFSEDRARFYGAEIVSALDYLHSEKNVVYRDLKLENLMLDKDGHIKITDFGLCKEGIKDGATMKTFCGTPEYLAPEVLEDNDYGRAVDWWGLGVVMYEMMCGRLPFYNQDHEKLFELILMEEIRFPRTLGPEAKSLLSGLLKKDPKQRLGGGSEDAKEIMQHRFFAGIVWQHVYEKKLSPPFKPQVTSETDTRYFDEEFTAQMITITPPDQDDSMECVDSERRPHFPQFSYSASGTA

IC50 (LATS1)	IC50 (AKT)	IC50 (LATS2)	Structure (SMILES)
24.6 nM	885 nM	19.3 nM	C[C@@H]1CN(C(=O)C(C)(C)N)C[C@H](C)C1(O)c1c(F)cc(-c2ccnc3[nH]cc(F)c23)cc1F (stereo partly drawn) [Compound 77, 2-amino-1-((3S,5R)-4-(2,6-difluoro-4-(3-fluoro-1H-pyrrolo[2,3-b]pyridin-4-yl)phenyl)-4-hydroxy-3,5-dimethylpiperidin-1-yl)-2-methylpropan-1-one]
12.8 nM	5140 nM	29.5 nM	C[C@@H]1CN(C(=O)C2(N)CC(F)(F)C2)C[C@H](C)C1(O)c1c(F)cc(-c2ccnc3[nH]cc(F)c23)cc1F (stereo partly drawn) [Compound 79, (1-amino-3,3-difluorocyclobutyl) ((3S,5R)-4-(2,6-difluoro-4-(3-fluoro-1H-pyrrolo[2,3-b]pyridin-4-yl)phenyl)-4-hydroxy-3,5-dimethylpiperidin-1-yl)methanone]
12.3 nM	700 nM	12.8 nM	C[C@@H]1CN(C(=O)CN(C)C)C[C@H](C)C1(O)c1c(F)cc(-c2ccnc3[nH]cc(F)c23)cc1F (stereo partly drawn) [Compound 80, 1-((3S,5R)-4-(2,6-difluoro-4-(3-fluoro-1H-pyrrolo[2,3-b]pyridin-4-yl)phenyl)-4-hydroxy-3,5-dimethylpiperidin-1-yl)-2-(dimethylamino) ethan-1-one]
24.1 nM	1020 nM	22.4 nM	C[C@@H]1CN(C(=O)[C@@H]2COCCN2)C[C@H](C)C1(O)c1c(F)cc(-c2ccnc3[nH]cc(F)c23)cc1F (stereo partly drawn) [Compound 81, ((3S,5R)-4-(2,6-difluoro-4-(3-fluoro-1H-pyrrolo[2,3-b]pyridin-4-yl)phenyl)-4-hydroxy-3,5-dimethylpiperidin-1-yl)((S)-morpholin-3-yl)methanone]
21.6 nM	1470 nM	10.3 nM	C[C@@H]1CN(C(=O)[C@@H]2CCCN2)C[C@H](C)C1(O)c1c(F)cc(-c2ccnc3[nH]cc(F)c23)cc1F (stereo partly drawn) [Compound 84, 4-(4-((3S,5R)-1-(L-prolyl)-4-hydroxy-3,5-dimethylpiperidin-4-yl)-3,5-difluorophenyl)-3-fluoro-1H-pyrrolo[2,3-b]pyridine]
20.3 nM	691 nM	6.5 nM	C[C@@H]1CN(C(=O)[C@@H](C)N)C[C@H](C)C1(O)c1c(F)cc(-c2ccnc3[nH]cc(F)c23)cc1F (stereo partly drawn) [Compound 86, (2R)-2-amino-1-((3S,5R)-4-(2,6-difluoro-4-(3-fluoro-1H-pyrrolo[2,3-b]pyridin-4-yl)phenyl)-4-hydroxy-3,5-dimethylpiperidin-1-yl)propan-1-one]
48 nM	4010 nM	47.3 nM	C[C@@H]1CN(C(=O)CN)C[C@H](C)C1(O)c1cnc(-c2ccnc3[nH]cc(F)c23)cc1F (stereo partly drawn) [Compound 87, 2-amino-1-((3S,5R)-4-(4-fluoro-6-(3-fluoro-1H-pyrrolo[2,3-b]pyridin-4-yl)pyridin-3-yl)-4-hydroxy-3,5-dimethylpiperidin-1-yl)ethan-1-one]
3.7 nM	68 nM	3.8 nM	C[C@@H]1CN(C2CC3(CNC3)C2)C[C@H](C)[C@@]1(O)c1c(F)cc(-c2ccnc3[nH]cc(F)c23)cc1F [Compound 89, (3R,4s,5S)-4-(2,6-difluoro-4-(3-fluoro-1H-pyrrolo[2,3-b]pyridin-4-yl)phenyl)-3,5-dimethyl-1-(2-azaspiro[3.3]heptan-6-yl)piperidin-4-ol]

The remaining lines, values behind:

Structure (SMILES)	IC50 (LATS1)	IC50 (AKT)	IC50 (LATS2)
C[C@@H]1CN(C(=O)C2(N)CC2)C[C@H](C)C1(O)c1c(F)cc(-c2ccnc3[nH]cc(F)c23)cc1F (stereo partly drawn) [Compound 78, (1-aminocyclopropyl) ((3S,5R)-4-(2,6-difluoro-4-(3-fluoro-1H-pyrrolo[2,3-b]pyridin-4-yl)phenyl)-4-hydroxy-3,5-dimethylpiperidin-1-yl)methanone]	16.9 nM	2430 nM	34 nM
C[C@H](N)C(=O)N1C[C@@H](C)C(O)(c2c(F)cc(-c3ccnc4[nH]cc(F)c34)cc2F)[C@@H](C)C1 (stereo partly drawn) [Compound 82, (2S)-2-amino-1-((3S,5R)-4-(2,6-difluoro-4-(3-fluoro-1H-pyrrolo[2,3-b]pyridin-4-yl)phenyl)-4-hydroxy-3,5-dimethylpiperidin-1-yl)propan-1-one]	14.5 nM	506 nM	14.2 nM
CNCC(=O)N1C[C@@H](C)C(O)(c2c(F)cc(-c3ccnc4[nH]cc(F)c34)cc2F)[C@@H](C)C1 (stereo partly drawn) [Compound 83, 1-((3S,5R)-4-(2,6-difluoro-4-(3-fluoro-1H-pyrrolo[2,3-b]pyridin-4-yl)phenyl)-4-hydroxy-3,5-dimethylpiperidin-1-yl)-2-(methylamino) ethan-1-one]	25 nM	570 nM	21.3 nM
C[C@@H]1CN(C(=O)[C@H]2CCCN2)C[C@H](C)C1(O)c1c(F)cc(-c2ccnc3[nH]cc(F)c23)cc1F (stereo partly drawn) [Compound 85, 4-(4-((3S,5R)-1-(D-prolyl)-4-hydroxy-3,5-dimethylpiperidin-4-yl)-3,5-difluorophenyl)-3-fluoro-1H-pyrrolo[2,3-b]pyridine]	5.8 nM	659 nM	4.7 nM
Cc1cc(-c2ccnc3[nH]cc(F)c23)cc(F)c1[C@@]1(O)[C@H](C)CN(C2CCNCC2)C[C@@H]1C [Compound 91, (3S,4s,5R)-4-(2-fluoro-4-(3-fluoro-1H-pyrrolo[2,3-b]pyridin-4-yl)-6-methylphenyl)-3,5-dimethyl-[1,4′-bipiperidin]-4-ol]	7.9 nM	179 nM	4.2 nM
C[C@@H]1CN(Cc2ccccc2)C[C@H](C)[C@@]1(O)c1c(F)cc(-c2ccnc3[nH]cc(F)c23)cc1F [Compound 93, (3S,4s,5R)-1-benzyl-4-(2,6-difluoro-4-(3-fluoro-1H-pyrrolo[2,3-b]pyridin-4-yl)phenyl)-3,5-dimethylpiperidin-4-ol]	10.6 nM	2090 nM	7.7 nM
CC(=O)N1C[C@@H](C)[C@](O)(c2c(F)cc(-c3ccnc4[nH]cc(F)c34)cc2F)[C@@H](C)C1 [Compound 94, 1-((3S,4s,5R)-4-(2,6-difluoro-4-(3-fluoro-1H-pyrrolo[2,3-b]pyridin-4-yl)phenyl)-4-hydroxy-3,5-dimethylpiperidin-1-yl)ethan-1-one]	17.8 nM	4750 nM	29.4 nM
